This is an account of results in patent US10952995B2, “Azaindoles as inhibitors of HPK1” (Genentech, Inc., priority 2017, dated 2021).

Structures can show the parent of a compound that is named as a salt.

HPK1, sequence (Q92918 1-346): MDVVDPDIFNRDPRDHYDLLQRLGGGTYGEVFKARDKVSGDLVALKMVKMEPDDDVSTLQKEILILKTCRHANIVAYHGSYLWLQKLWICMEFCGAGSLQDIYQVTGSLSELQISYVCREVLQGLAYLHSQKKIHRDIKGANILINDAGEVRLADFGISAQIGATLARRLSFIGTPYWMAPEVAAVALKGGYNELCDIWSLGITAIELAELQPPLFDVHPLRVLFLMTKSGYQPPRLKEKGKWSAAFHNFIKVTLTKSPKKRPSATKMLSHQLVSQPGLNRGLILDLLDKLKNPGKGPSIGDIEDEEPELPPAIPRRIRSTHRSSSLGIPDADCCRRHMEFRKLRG

This experiment deals with HPK1 (Homo sapiens (Human), UniProt Q92918). The experiment can be described thus: HPK Lantha Binding Assay (TR-FRET, Tracer-222 / Eu-Anti-GST Ab). The following applies: 2 nM HPK1, 2 nM Eu-Anti-GST Ab, 15 nM Tracer222, 60 min incubation; Morrison ki fit. The protocol: Methods for Biological evaluation to assess compound inhibition of HPK-1:
I. Compound Dilution: • 1. Prepare 12.5 uL/well of 5 mM of compounds (100×) to column 2 and column 13 & 10 ul/well DMSO in column 3-12, 14-23 and well A1-H1, I24-P24 of compound plate with Bravo. For reference compound, the top concentration is 1 mM • 2. Add 10 ul 2 mM staurosporine in well J1-P1 and A24-H24 • 3. Perform 11 point 5-fold compound serial dilution with Bravo • a. transfer 2.5 ul compounds from column 2 and column 13 to 10 ul of DMSO in column 3 and column 14 & so on • 4. Centrifuge the compound plate at 2500 rpm for 1 min • 5. Transfer 80 nl compounds into assay plate using Echo. One compound plate makes two assay plates • 6. Seal the assay plate and store in N2 cabinet.
2 nM HPK1, 2 nM Eu-Anti-GST Ab, 15 nM Tracer222, 60 min incubation
III. HPK Lantha Binding Assay: • 1. Add 4 ul 2×HPK1 and Eu-anti-GST antibody into each well of assay plate using Multidrop • 2. Incubate at 23 C incubator for 1 h • 3. Add 4 ul 2× Tracer-222 into each well of assay plate using Multidrop • 4. Incubate at 23 C incubator for 1 h • 5. Read the assay plate in Envision • a. TR_FRET, 340 ex/615 and 665 em • b. 100 usec Delay, 200 usec integration
IV. Analysis: • 1. Compound Ki was analyzed using Morrison ki fit model in XL-fit • a. fit=(1−((((E+x)+(Ki*(1[…](S/Kd))))−(((((E+x)+(Ki*(1+(S/Kd))))^2)−((4*E)*x))^0.5))/(2*E))) • res=(y-fit) • b. Parameters: • E=enzyme concentration • S=Tracer222 concentration, Kd=Tracer222 Kd • All in the same units (uM)
Regarding `CCc1c(Cl)[nH]c2ncc(-c3cccc(N4CCOCC4=O)c3)cc12` [Compound 1-1, 4-(3-(2-chloro-3-ethyl-1H-pyrrolo[2,3]pyridin-5-yl)phenyl)morpholin-3-one], the affinity corresponds to a Ki of 2 nM.

`CCc1c(Cl)[nH]c2ncc(-c3ccc(N)c(C(=O)N(C)C)n3)cc12` [Compound 1-2, 3-amino-6-(2-chloro-3-ethyl-1H-pyrrolo[2,3-b]pyridin-5-yl)-N,N-dimethylpicolinamide] had a Ki of 3 nM.

Consider `CCc1c(Cl)[nH]c2ncc(-c3ccc(N)c(C(=O)N(C)C)c3)cc12` [Compound 1-3, 2-amino-5-(2-chloro-3-ethyl-1H-pyrrolo[2,3-b]pyridin-5-yl)-N,N-dimethylbenzamide], for which the Ki is 0.9 nM. This Ki lies about 3.3-fold lower than the previous one.

As for `CCc1c(C)[nH]c2ncc(-c3ccc(N)c(C(=O)N(C)C)c3)cc12` [Compound 1-4, 2-amino-5-(3-ethyl-2-methyl-1H-pyrrolo[2,3-b]pyridin-5-yl)-N,N-dimethylbenzamide], the Ki was 15 nM. Compared with the last molecule, the Ki is about 17-fold higher.

`CCc1c(Cl)[nH]c2ncc(-c3cccc(N4CCOCC4=O)n3)cc12` [Compound 1-5, 4-(6-(2-chloro-3-ethyl-1H-pyrrolo[2,3-b]pyridin-5-yl)pyridin-2-yl)morpholin-3-one] came in with a Ki of 2 nM.

Molecule `CCc1c(Cl)[nH]c2ncc(-c3ccc(N)c(C(=O)N4CC(O)C4)n3)cc12` [Compound 1-6, (3-amino-6-(2-chloro-3-ethyl-1H-pyrrolo[2,3-b]pyridin-5-yl)pyridin-2-yl)(3-hydroxyazetidin-1-yl)methanone formate] registered a Ki of 15 nM.

`CCc1c(Cl)[nH]c2ncc(-c3ccnc(N4CCOC4=O)n3)cc12` [Compound 1-7, 3-(4-(2-chloro-3-ethyl-1H-pyrrolo[2,3-b]pyridin-5-yl)pyrimidin-2-yl)oxazolidin-2-one formate] returned a Ki of 33 nM.

Molecule `Cc1[nH]c2ncc(-c3cccc(N4CCOCC4=O)n3)cc2c1C(F)(F)F` [Compound 1-8, 4-(6-(2-methyl-3-(trifluoromethyl)-1H-pyrrolo[2,3-b]pyridin-5-yl)pyridin-2-yl)morpholin-3-one] showed a Ki of 68 nM.

For the molecule `Cc1[nH]c2ncc(-c3ccc(N)c(C(=O)N(C)C)n3)cc2c1C(F)(F)F` [Compound 1-9, 3-amino-N,N-dimethyl-6-(2-methyl-3-(trifluoromethyl)-1H-pyrrolo[2,3-b]pyridin-5-yl)picolinamide], the Ki worked out at 76 nM. This Ki and that of the molecule before are within 1.5-fold of each other.

Regarding `Cc1[nH]c2ncc(-c3ccc(N)c(C(=O)N(C)C)c3)cc2c1C(F)(F)F` [Compound 1-10, 2-amino-N,N-dimethyl-5-(2-methyl-3-(trifluoromethyl)-1H-pyrrolo[2,3-b]pyridin-5-yl)benzamide], the affinity corresponds to a Ki of 32 nM. This Ki lies about 2.4-fold lower than the previous one.

As for `Cc1[nH]c2ncc(-c3ccc(N)c(N4CCOCC4=O)n3)cc2c1C(F)(F)F` [Compound 1-11, 4-(3-amino-6-(2-methyl-3-(trifluoromethyl)-1H-pyrrolo[2,3-b]pyridin-5-yl)pyridin-2-yl)morpholin-3-one], the affinity corresponds to a Ki of 13 nM.

Molecule `Cc1[nH]c2ncc(-c3cc(N)cc(-c4ncccc4CO)c3)cc2c1C(F)(F)F` [Compound 1-12, (2-(3-amino-5-(2-methyl-3-(trifluoromethyl)-1H-pyrrolo[2,3-b]pyridin-5-yl)phenyl)pyridin-3-yl)methanol] displayed a Ki of 24 nM.

As for `O=C1COCCN1c1cccc(-c2cnc3[nH]c(CO)c(C(F)(F)F)c3c2)c1` [Compound 1-13, 4-(3-(2-(hydroxymethyl)-3-(trifluoromethyl)-1H-pyrrolo[2,3-b]pyridin-5-yl)phenyl)morpholin-3-one], the affinity corresponds to a Ki of 1700 nM.

Turning to `O=C1COCCN1c1cccc(-c2cnc3[nH]c(Cl)c(CCF)c3c2)c1` [Compound 1-14, 4-(3-(2-chloro-3-(2-fluoroethyl)-1H-pyrrolo[2,3-b]pyridin-5-yl)phenyl) morpholin-3-one], the Ki came out at 17 nM.

Consider `Cc1[nH]c2ncc(-c3cccc(N4CCOCC4CO)n3)cc2c1C(F)(F)F` (stereo not drawn) [Compound 1-15, (4-(6-(2-methyl-3-(trifluoromethyl)-1H-pyrrolo[2,3-b]pyridin-5-yl)pyridin-2-yl)morpholin-3-yl)methanol], for which affinity was put at a Ki of 75 nM.

`Cc1[nH]c2ncc(-c3cccc(N4CCCNC4=O)n3)cc2c1C(F)(F)F` [Compound 1-16, 1-(6-(2-methyl-3-(trifluoromethyl)-1H-pyrrolo[2,3-b]pyridin-5-yl)pyridin-2-yl)tetrahydropyrimidin-2(1H)-one] registered a Ki of 82 nM.

Regarding `Cc1cc2cc(-c3ccc(N)c(C(=O)N(C)C)c3)cnc2[nH]1` [Compound 1-17, 2-amino-N,N-dimethyl-5-(2-methyl-1H-pyrrolo[2,3-b]pyridin-5-yl)benzamide], the affinity, expressed as Ki, was 1300 nM.

Turning to `CCc1c(F)[nH]c2ncc(-c3cccc(N4CCOCC4=O)c3)cc12` [Compound 1-18, 4-[3-(3-Ethyl-2-fluoro-1H-pyrrolo[2,3-b]pyridin-5-yl)phenyl]morpholin-3-one], the affinity, expressed as Ki, was 4 nM.

The molecule `CCc1c(F)[nH]c2ncc(-c3ccc(N)c(C(=O)N(C)C)c3F)cc12` [Compound 1-19, 6-Amino-3-(3-ethyl-2-fluoro-1H-pyrrolo[2,3-b]pyridin-5-yl)-2-fluoro-N,N-dimethylbenzamide] came in with a Ki of 1 nM.

Molecule `CN(C)C(=O)c1c(N)ccc(-c2cnc3[nH]c(Cl)c(CCO)c3c2)c1F` [Compound 1-20, 6-Amino-3-[2-chloro-3-(2-hydroxyethyl)-1H-pyrrolo[2,3-b]pyridin-5-yl]-2-fluoro-N,N-dimethylbenzamide] yielded an inhibition constant Ki of 17 nM.

In the case of `O=C1COCCN1c1cccc(-c2cnc3[nH]c(Cl)c(CCO)c3c2)c1` [Compound 1-21, 4-{3-[2-Chloro-3-(2-hydroxyethyl)-1H-pyrrolo[2,3-b]pyridin-5-yl]phenyl}morpholin-3-one], the affinity corresponds to a Ki of 89 nM.

Consider `CN(C)C(=O)c1cc(-c2cnc3[nH]c(Cl)c(CCO)c3c2Cl)ccc1N` [Compound 1-22, 2-amino-5-(2,4-dichloro-3-(2-hydroxyethyl)-1H-pyrrolo[2,3-b]pyridin-5-yl)-N,N-dimethylbenzamide], for which the affinity corresponds to a Ki of 9.4 nM.

As for `COCc1c(Cl)[nH]c2ncc(-c3ccc(N)c(C(=O)N(C)C)c3F)cc12` [Compound 1-23, 6-amino-3-(2-chloro-3-(methoxymethyl)-1H-pyrrolo[2,3-b]pyridin-5-yl)-2-fluoro-N,N-dimethylbenzamide], the inhibition constant (Ki) was determined as 160 nM. This Ki lies about 17-fold higher than the previous one.

In turn, `CCc1c(Cl)[nH]c2ncc(-c3ccc(C4NCCNC4=O)cc3)cc12` (stereo not drawn) [Compound 1-24, 3-(4-(2-chloro-3-ethyl-1H-pyrrolo[2,3-b]pyridin-5-yl)phenyl)piperazin-2-one] registered a Ki of 32 nM.

For `CCc1c(Cl)[nH]c2ncc(-c3cccc(C4NCCNC4=O)c3)cc12` (stereo not drawn) [Compound 1-25, 3-(3-(2-chloro-3-ethyl-1H-pyrrolo[2,3-b]pyridin-5-yl)phenyl)piperazin-2-one], the inhibition constant Ki worked out at 31 nM. This Ki and that of the molecule before are within 1.5-fold of each other.

In the case of `CN(C)C(=O)c1c(N)ccc(-c2cnc3[nH]c(Cl)c(CCO)c3c2Cl)c1F` [Compound 1-26, 6-amino-3-(2,4-dichloro-3-(2-hydroxyethyl)-1H-pyrrolo[2,3-b]pyridin-5-yl)-2-fluoro-N,N-dimethylbenzamide], the affinity corresponds to a Ki of 12 nM.

On to `CCc1c(Cl)[nH]c2ncc(-c3ccc(N)c(C(=O)N(C)C)c3F)cc12` [Compound 1-27, 6-amino-3-(2-chloro-3-ethyl-1H-pyrrolo[2,3-b]pyridin-5-yl)-2-fluoro-N,N-dimethylbenzamide], for which the Ki came to 2.7 nM.

Usually Ki stands for the equilibrium dissociation constant of an inhibitor or competing ligand from its target.
